Measured values as given in patent publication US20250263376A1, “(E)-N-CINNAMOYLAMINOALKANOLS WITH MELANOGENESIS INHIBITORY ACTIVITY” (Uniwersytet Jagiellonski, priority 2024, published 2025).

How the values were obtained:
[1] = test system: keratinocytes (HaCaT); experiment: Safety, MTT test in keratinocytes; assay type: cell-based; settings: 48 hours
Protocol: (§1) In order to test the safety of the compounds, both normal human cells were used: keratinocytes (HaCaT), fibroblasts (BJ), primary melanocytes that occur in the skin, as well as human cancer cells: the hepatocarcinoma line HepG2 and the neuroblastoma line SH-SY5Y, which are considered a model for the assessment of hepatocytotoxicity and neurocytotoxicity. The concentrations of the tested compounds in the range of […] were used in the studies. The cell lines used in the research were purchased from the American Type Culture Collection (ATCC) and were cultured in media recommended by the manufacturer with the addition of FBS and antibiotics in an incubator ensuring appropriate culture conditions, i.e. humidity, temperature and CO2 concentration. Cells were seeded into multiwell plates and incubated with the test compounds for 48 hours. After this time, MTT and LDH tests were performed to assess cell viability. The MTT test is based on the ability to transform the substrate: [3-(4,5-dimethyl-2-thiazolyl)-2,5-diphenyl-2H-tetrazolium bromide into a colored product only by living cells. The absorbance at 570 nm, which corresponds to the absorption maximum for the product, is directly proportional to cell viability. The LDH test is based on testing the activity of the enzyme lactate dehydrogenase in the culture medium, which is released from cells as a result of damage to the cell membrane, e.g. as a result of cell death. Triton X-100 was used as a positive control in the test. The determination is colorimetric, the substrate is transformed by the released enzyme into a colored product, an increase in absorbance indicates a larger amount of the released enzyme, and thus confirms greater damage to cell membranes. Tables 7 and 8 present the results obtained, which correspond to the viability of cells incubated with the compounds in relation to the viability of cells constituting a control sample, i.e. incubated with the solvent (DMSO) at the same concentration as in the case of the groups tested in the MTT test or in relation to the results obtained for the Triton X-100 positive control in the LDH test. They indicate that the compounds are safe at the concentrations tested.

[2] = test system: fibroblasts (BJ); experiment: Safety, MTT test in fibroblasts; assay type: cell-based; settings: 48 hours
Protocol: as §1

[3] = test system: fibroblasts (BJ); experiment: Safety, LDH test in fibroblasts; assay type: cell-based; settings: 48 hours, vs Triton X-100
Protocol: as §1

[4] = test system: primary melanocytes; experiment: Safety, LDH test in primary melanocytes; assay type: cell-based; settings: 48 hours, vs Triton X-100
Protocol: as §1

[5] = test system: hepatocarcinoma HepG2; experiment: Safety, MTT test in HepG2; assay type: cell-based; settings: 48 hours
Protocol: as §1

[6] = test system: hepatocarcinoma HepG2; experiment: Safety, LDH test in HepG2; assay type: cell-based; settings: 48 hours, vs Triton X-100
Protocol: as §1

[7] = test system: neuroblastoma SH-SY5Y; experiment: Safety, MTT test in SH-SY5Y; assay type: cell-based; settings: 48 hours
Protocol: as §1

[8] = test system: S. typhimurium TA98; experiment: Ames microplate test, TA98; assay type: cell-based, Salmonella typhimurium; settings: without S9
Protocol: Bacteria were grown overnight in growth medium.

[9] = test system: S. typhimurium TA100; experiment: Ames microplate test, TA100; assay type: cell-based, Salmonella typhimurium; settings: without S9
Protocol: (§2) The study used the Ames microplate test (Ames MPF™ Penta 2 by Xenometrix, Allschwil, Switzerland). Growth medium, exposure medium, indicator medium, positive controls, hepatic microsomal fraction, NADP, glucose-6-phosphate, Salmonella typhimurium and Escherichia coli strains were components of the purchased experimental kit. Bacteria were grown overnight in growth medium. They were then exposed to the test compound at the appropriate concentration in exposure medium without or with the rat microsomal fraction S9 in 24-well plates for 90 min at 37° C. with shaking. Then, indicator medium was added to the wells and pipetted into 384-well plates, which were incubated for 48 hours at 37° C. without shaking. Results were assessed by counting the wells in which the medium turned yellow for each experimental condition.

[10] = test system: S. typhimurium TA1535; experiment: Ames microplate test, TA1535; settings: without S9;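 note: bacteria exposed 90 min at 37 °C in exposure medium, then 48 h in indicator medium in 384-well plates, yellow (revertant) wells counted per condition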
[11] = test system: E. coli WP2; experiment: Ames microplate test, E. coli WP2; settings: without S9;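 note: bacteria exposed to compound for 90 min at 37 °C in 24-well plates, then transferred with indicator medium to 384-well plates and incubated 48 h before yellow well counting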
Protocol: as §2

| SMILES | MTT, Keratinocytes (HaCaT) ([1]; 100 μM) | MTT, Keratinocytes (HaCaT) ([1]; 150 μM) | MTT, Keratinocytes (HaCaT) ([1]; 200 μM) | MTT, Keratinocytes (HaCaT) ([1]; 250 μM) | MTT, Fibroblasts (BJ) ([2]; 100 μM) | MTT, Fibroblasts (BJ) ([2]; 150 μM) | MTT, Fibroblasts (BJ) ([2]; 200 μM) | MTT, Fibroblasts (BJ) ([2]; 250 μM) | LDH, Fibroblasts (BJ) ([3]; 100 μM) | LDH, Fibroblasts (BJ) ([3]; 150 μM) | LDH, Fibroblasts (BJ) ([3]; 200 μM) | LDH, Fibroblasts (BJ) ([3]; 250 μM) | LDH, Primary melanocytes ([4]; 100 μM) | LDH, Primary melanocytes ([4]; 150 μM) | LDH, Primary melanocytes ([4]; 200 μM) | LDH, Primary melanocytes ([4]; 250 μM) | MTT, Hepatocarcinoma HepG2 ([5]; 100 μM) | MTT, Hepatocarcinoma HepG2 ([5]; 150 μM) | MTT, Hepatocarcinoma HepG2 ([5]; 200 μM) | MTT, Hepatocarcinoma HepG2 ([5]; 250 μM) | also measured |
| --- | --- | --- | --- | --- | --- | --- | --- | --- | --- | --- | --- | --- | --- | --- | --- | --- | --- | --- | --- | --- | --- |
| O=C(/C=C/c1ccc(Cl)cc1)NCCO [H-427/21, (2E)-3-(4-chlorophenyl)-N-(2-hydroxyethyl)prop-2-enamide] | 100.47 ± 3.65 % of solvent control | 98.15 ± 2.63 % of solvent control | 99.24 ± 3.00 % of solvent control | 89.94 ± 4.66 % of solvent control | 101.82 ± 3.99 % of solvent control | 100.76 ± 3.34 % of solvent control | 100.37 ± 3.92 % of solvent control | 98.13 ± 2.81 % of solvent control | 2.75 percentage of positive control | 5.92 percentage of positive control | 9.00 percentage of positive control | 17.32 percentage of positive control | 3.93 percentage of positive control | 4.44 percentage of positive control | 4.31 percentage of positive control | 15.01 percentage of positive control | 99.61 ± 4.37 % of solvent control | 98.44 ± 3.94 % of solvent control | 97.07 ± 4.00 % of solvent control | 100.08 ± 10.58 % of solvent control | LDH, Hepatocarcinoma HepG2 ([6]; 100 μM): 3.09 percentage of positive control; LDH, Hepatocarcinoma HepG2 ([6]; 150 μM): 4.45 percentage of positive control; LDH, Hepatocarcinoma HepG2 ([6]; 200 μM): 5.98 percentage of positive control; LDH, Hepatocarcinoma HepG2 ([6]; 250 μM): 13.51 percentage of positive control; MTT, Neuroblastoma SH-SY5Y ([7]; 100 μM): 100.48 ± 3.67 % of solvent control; MTT, Neuroblastoma SH-SY5Y ([7]; 150 μM): 100.96 ± 2.72 % of solvent control; MTT, Neuroblastoma SH-SY5Y ([7]; 200 μM): 101.30 ± 2.94 % of solvent control; MTT, Neuroblastoma SH-SY5Y ([7]; 250 μM): 102.60 ± 9.66 % of solvent control |
| Cc1ccc(/C=C/C(=O)NCCCCCO)cc1 [H-415/21, (2E)-N-(5-hydroxypentyl)-3-(4-methylphenyl)prop-2-enamide] | 101.11 ± 2.03 % of solvent control | 101.78 ± 2.32 % of solvent control | 100.88 ± 1.40 % of solvent control | 88.54 ± 3.74 % of solvent control | 102.12 ± 2.71 % of solvent control | 101.92 ± 2.88 % of solvent control | 96.13 ± 3.64 % of solvent control | 92.86 ± 4.30 % of solvent control | 8.81 percentage of positive control | 8.75 percentage of positive control | 9.82 percentage of positive control | 16.63 percentage of positive control | 4.22 percentage of positive control | 6.01 percentage of positive control | 8.34 percentage of positive control | 14.94 percentage of positive control | 100.32 ± 1.75 % of solvent control | 99.54 ± 5.74 % of solvent control | 100.53 ± 3.98 % of solvent control | 98.90 ± 4.21 % of solvent control | LDH, Hepatocarcinoma HepG2 ([6]; 100 μM): 3.90 percentage of positive control; LDH, Hepatocarcinoma HepG2 ([6]; 150 μM): 7.24 percentage of positive control; LDH, Hepatocarcinoma HepG2 ([6]; 200 μM): 8.92 percentage of positive control; LDH, Hepatocarcinoma HepG2 ([6]; 250 μM): 15.47 percentage of positive control; MTT, Neuroblastoma SH-SY5Y ([7]; 100 μM): 100.68 ± 4.63 % of solvent control; MTT, Neuroblastoma SH-SY5Y ([7]; 150 μM): 99.32 ± 2.96 % of solvent control; MTT, Neuroblastoma SH-SY5Y ([7]; 200 μM): 100.27 ± 3.50 % of solvent control; MTT, Neuroblastoma SH-SY5Y ([7]; 250 μM): 101.71 ± 2.38 % of solvent control; Increase in the number of yellow wells compared to the reference level, TA98 ([8]; 0.5 mM): 0.47; Increase in the number of yellow wells compared to the reference level, TA98 ([8]; 1.0 mM): 0.24; Increase in the number of yellow wells compared to the reference level, TA98 ([8]; 2.0 mM): 0.35; Increase in the number of yellow wells compared to the reference level, TA100 ([9]; 0.5 mM): 0.92; Increase in the number of yellow wells compared to the reference level, TA100 ([9]; 1.0 mM): 0.58; Increase in the number of yellow wells compared to the reference level, TA100 ([9]; 2.0 mM): 0.75; Increase in the number of yellow wells compared to the reference level, TA1535 ([10]; 0.5 mM): 0.21; Increase in the number of yellow wells compared to the reference level, TA1535 ([10]; 1.0 mM): 0.41; Increase in the number of yellow wells compared to the reference level, TA1535 ([10]; 2.0 mM): 0.10; Increase in the number of yellow wells compared to the reference level, E. coli WP2 ([11]; 0.5 mM): 0.64; Increase in the number of yellow wells compared to the reference level, E. coli WP2 ([11]; 1.0 mM): 0.40; Increase in the number of yellow wells compared to the reference level, E. coli WP2 ([11]; 2.0 mM): 0.95 |
| O=C(/C=C/c1ccc(Cl)cc1)NCCCO [H-330/21, (2E)-3-(4-chlorophenyl)-N-(3-hydroxypropyl)prop-2-enamide] | 102.03 ± 1.45 % of solvent control | 101.42 ± 2.04 % of solvent control | 97.07 ± 2.81 % of solvent control | 94.89 ± 1.06 % of solvent control | 100.54 ± 5.01 % of solvent control | 94.85 ± 3.51 % of solvent control | 85.52 ± 3.08 % of solvent control | 76.51 ± 1.80 % of solvent control | 4.74 percentage of positive control | 6.50 percentage of positive control | 14.25 percentage of positive control | 28.74 percentage of positive control | 5.63 percentage of positive control | 13.09 percentage of positive control | 10.91 percentage of positive control | 18.10 percentage of positive control | 100.73 ± 4.51 % of solvent control | 100.44 ± 3.93 % of solvent control | 100.86 ± 6.41 % of solvent control | 93.16 ± 1.71 % of solvent control | LDH, Hepatocarcinoma HepG2 ([6]; 100 μM): 5.38 percentage of positive control; LDH, Hepatocarcinoma HepG2 ([6]; 150 μM): 4.90 percentage of positive control; LDH, Hepatocarcinoma HepG2 ([6]; 200 μM): 12.16 percentage of positive control; LDH, Hepatocarcinoma HepG2 ([6]; 250 μM): 19.02 percentage of positive control; MTT, Neuroblastoma SH-SY5Y ([7]; 100 μM): 99.79 ± 5.34 % of solvent control; MTT, Neuroblastoma SH-SY5Y ([7]; 150 μM): 99.86 ± 3.76 % of solvent control; MTT, Neuroblastoma SH-SY5Y ([7]; 200 μM): 99.79 ± 3.97 % of solvent control; MTT, Neuroblastoma SH-SY5Y ([7]; 250 μM): 99.11 ± 3.66 % of solvent control |
